pIC50: −log10 of the molar value. Counter-ions that a name gives are not always drawn.
Target: T1, human CGT (ceramide galactosyltransferase), CHO/CGT lysate (Homo sapiens, UniProt Q16880)
T1 construct: Full-length human CGT cDNA was cloned into the BamH1/Xho1 site of pcDNA3.1 (+); expressed in transfected cells; host or cells: Chinese hamster ovary (CHO) cells; lysate prepared with M-PER
T1 sequence (Q16880 21-541): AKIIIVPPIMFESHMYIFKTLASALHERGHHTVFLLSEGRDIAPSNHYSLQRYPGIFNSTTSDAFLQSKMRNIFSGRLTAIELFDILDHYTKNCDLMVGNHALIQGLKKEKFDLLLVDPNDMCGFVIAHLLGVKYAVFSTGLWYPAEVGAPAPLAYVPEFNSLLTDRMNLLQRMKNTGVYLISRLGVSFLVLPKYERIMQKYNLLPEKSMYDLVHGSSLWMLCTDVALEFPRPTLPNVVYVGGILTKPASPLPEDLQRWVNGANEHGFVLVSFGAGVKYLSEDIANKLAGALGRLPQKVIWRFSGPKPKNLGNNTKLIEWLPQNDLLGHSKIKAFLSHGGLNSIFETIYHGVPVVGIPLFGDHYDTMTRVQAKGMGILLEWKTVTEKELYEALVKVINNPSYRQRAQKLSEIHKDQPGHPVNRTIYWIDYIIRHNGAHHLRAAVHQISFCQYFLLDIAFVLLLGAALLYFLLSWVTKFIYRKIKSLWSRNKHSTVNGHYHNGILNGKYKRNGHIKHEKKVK
Assay: CGT enzyme assay, LC-MS/MS readout (Table 1 ranges without asterisk)
Format: biochemical
Conditions: LC-MS/MS method (range without asterisk)
Experimental: Full-length human CGT cDNA was cloned into the BamH1/Xho1 site of pcDNA3.1 (+) mammalian expression vector (V90-20, Invitrogen, Carlsbad, Calif.) and the plasmid was transfected into Chinese hamster ovary (CHO) cells. Lysate was prepared using M-PER (Mammalian Protein Extraction Reagent, ThermoFisher Scientific, Grand Island, N.Y.) in the presence of a protease inhibitor cocktail (P8340, Sigma, Saint Louis, Mo.). Each 100 mm dish (100% confluent, approximately 1×10^7 cells) was lysed with 250 μL of M-PER containing protease inhibitors. Protein concentration was determined using a Pierce BCA protein assay kit (ThermoFisher Scientific). Four micrograms of CHO/CGT lysate was incubated with various concentrations of a compound (0.001 μM-50 μM) in 10 mM HEPES (pH 7.2) containing 35 μM dioleoylphosphatidylcholine, 5 mM MgCl2, 5 mM MnCl2, 1% BSA, 15 mM KCl, 1 mM EGTA, 8 mM CHAPS, 10 μM C6-NBD-dihydro-ceramide and 17.5 μM UDP-galactose in a final reaction volume of 20 μL at 37° C. for 1 hour. The final concentration of DMSO was 0.5% in both compound-treated and mock-treated samples. Tween 80 (0.01%) was optionally added to the reaction mixture to help solubilize the compounds. Each individual reaction was diluted with 80 μL of methanol:acetronitrile (1:3) containing 5 μM N-docdecanoyl-NBD-galactosylceramide (internal standard) to stop the reaction. 200 μL H2O:acetonitile (1:1) was added to precipitate the protein. After sufficient mixing, the plates were centrifuged at 2469 g for 38 minutes, 200 μL of supernatant was transferred to a LC/MS 96-deep well plate and a second spin was performed at 2469 g for 10 minutes. The final supernatant was injected in triplicate for RapidFire/MS/MS analysis.
An alternative LC-MS/MS based method was also used. For the LC-MS/MS readout, the CGT assay was identical to the one described above except for the following: […] was used as the CGT enzyme source, C12:0 (2R—OH) ceramide was used as the ceramide substrate and 0.3 μM Cl2 ceramide was used as the internal standard. Tween 80 was not present in the reaction mixture. The final supernatant was injected for LC-MS/MS analysis.
Quantitative analysis using the LC-MS/MS method: The quantitative analysis of C12:0 (2R—OH) ceramide and C12:0 (2R—OH) galactosylceramide by LC-MS/MS was performed on a Shimadzu ultra-fast liquid chromatography (Shimadzu, Japan) coupled with API 4000 mass spectrometer (Applied Biosystems, Concord, Ontario, Canada). Analyst 1.5 software packages (Applied Biosystems) were used to control the LC-MS/MS system, as well as for data acquisition and processing. 10 μL of sample was loaded onto a Luna C18 column (50 mm×2.0 mm, I.D. 3 μm, 100A) (Phenomenex, USA) for chromatographic separation. Mobile phase A consisted of HPLC grade water with 0.1% formic acid (v/v) and mobile phase B consisted of acetonitrile supplemented with 0.1% formic acid (v/v). The separation was achieved using the following gradient program at a flow rate of 0.8 mL/min: the initial mobile phase was 70% B, which was increased in a linear fashion to 95% B in 1.50 min, and then maintained at 95% B until 3.50 min. The mobile phase was then reset to 70% B within 0.01 min, and maintained until 4.50 min. The total run time was 4.50 min. The MS/MS detection was performed in ESI positive mode. The mass transition selected for quantification was m/z 498.5-264.3 for C12:0 (2R—OH) ceramide under the collision energy of 38.8 V, and the mass transition of C12:0 (2R—OH) galactosylceramide was m/z 660.6-264.5 under the collision energy of 51 V. The mass transition of Cl2 ceramide which was used as internal standard was m/z 482.4-264.3 under the collision energy of 33V. Compound IC50 values were calculated using a protocol identical to the one described for the RapidFire method (see Table 1, where data ranges without an asterix correspond to analysis using the LC-MS/MS method).
Using the above CGT enzyme and CGT cellular assays, the compounds of Table 1 were tested. […]

Row | Structure (SMILES) | pIC50
1 | NC1CC2CCC(C1)N2C(=O)[C@H](NS(=O)(=O)c1cccc(OCc2ccc(F)cc2)c1)C(F)(F)c1ccc(Br)cc1 (stereo partly drawn) [Compound 17-2, N-((2S)-3-(3-amino-8-azabicyclo[3.2.1]octan-8-yl)-1-(4-bromophenyl)-1,1-difluoro-3-oxopropan-2-yl)-3-((4-fluorobenzyl)oxy) benzenesulfonamide trifluoroacetate] | 4.00 to 4.52
2 | NC1CC2CCC(C1)N2C(=O)[C@@H](NS(=O)(=O)c1ccc(Oc2ccc(Cl)cn2)cc1)C(F)(F)c1ccc(Br)cc1 (stereo partly drawn) [Compound 18-1, N-((2R)-3-(3-amino-8-azabicyclo[3.2.1]octan-8-yl)-1-(4-bromophenyl)-1,1-difluoro-3-oxopropan-2-yl)-4-((5-chloropyridin-2-yl)oxy)benzenesulfonamide trifluoroacetate] | 4.52 to 5.00
3 | NC1CC2CCC(C1)N2C(=O)[C@H](NS(=O)(=O)c1ccc(Oc2ccc(Cl)cn2)cc1)C(F)(F)c1ccc(Br)cc1 (stereo partly drawn) [Compound 18-2, N-((2S)-3-(3-amino-8-azabicyclo[3.2.1]octan-8-yl)-1-(4-bromophenyl)-1,1-difluoro-3-oxopropan-2-yl)-4-((5-chloropyridin-2-yl)oxy) benzenesulfonamide trifluoroacetate] | 4.00 to 4.52
4 | CC(C)Oc1ccc2cc([C@H](O)C(=O)N[C@H](C(=O)N3C4CCC3CC(N)C4)C(F)(F)c3ccc(Br)cc3)ccc2c1 (stereo partly drawn) [Compound 19-3, (2S)—N-((2R)-3-(3-amino-8-azabicyclo[3.2.1]octan-8-yl)-1-(4-bromophenyl)-1,1-difluoro-3-oxopropan-2-yl)-2-hydroxy-2-(6-isopropoxynaphthalen-2-yl)acetamide trifluoroacetate] | 5.00 to 6.00
5 | CC(C)Oc1ccc2cc([C@@H](O)C(=O)N[C@H](C(=O)N3C4CCC3CC(N)C4)C(F)(F)c3ccc(Br)cc3)ccc2c1 (stereo partly drawn) [Compound 19-5, (2R)—N-((2R)-3-(3-amino-8-azabicyclo[3.2.1]octan-8-yl)-1-(4-bromophenyl)-1,1-difluoro-3-oxopropan-2-yl)-2-hydroxy-2-(6-isopropoxynaphthalen-2-yl)acetamide trifluoroacetate] | 4.52 to 5.00
6 | CC(C)Oc1ccc2cc([C@H](O)C(=O)N[C@@H](C(=O)N3C4CCC3CC(N)C4)C(F)(F)c3ccc(Br)cc3)ccc2c1 (stereo partly drawn) [Compound 19-6, (2S)—N-((2S)-3-(3-amino-8-azabicyclo[3.2.1]octan-8-yl)-1-(4-bromophenyl)-1,1-difluoro-3-oxopropan-2-yl)-2-hydroxy-2-(6-isopropoxynaphthalen-2-yl)acetamide trifluoroacetate] | 4.00 to 4.52
7 | NC1CC2CCC(C1)N2C(=O)[C@@H](NS(=O)(=O)c1ccc(OCC2CCCC2)cc1)C(F)(F)c1ccc(Br)cc1 (stereo partly drawn) [Compound 20-1, N-((2R)-3-(3-amino-8-azabicyclo[3.2.1]octan-8-yl)-1-(4-bromophenyl)-1,1-difluoro-3-oxopropan-2-yl)-4-(cyclopentylmethoxy)benzenesulfonamide trifluoroacetate] | 5.00 to 6.00
8 | NC1CC2CCC(C1)N2C(=O)[C@H](NS(=O)(=O)c1ccc(OCC2CCCC2)cc1)C(F)(F)c1ccc(Br)cc1 (stereo partly drawn) [Compound 20-2, N-((2S)-3-(3-amino-8-azabicyclo[3.2.1]octan-8-yl)-1-(4-bromophenyl)-1,1-difluoro-3-oxopropan-2-yl)-4-(cyclopentylmethoxy) benzenesulfonamide trifluoroacetate] | 4.52 to 5.00
9 | CC(C)Oc1ccc2cc(S(=O)(=O)N[C@H](C(=O)N3C4CCC3CC(N(C)C)C4)C(F)(F)c3ccc(Br)cc3)ccc2c1 (stereo partly drawn) [Compound 21-1, N-((2R)-1-(4-bromophenyl)-3-(3-(dimethylamino)-8-azabicyclo[3.2.1]octan-8-yl)-1,1-difluoro-3-oxopropan-2-yl)-6-isopropoxynaphthalene-2-sulfonamide] | 4.52 to 5.00
10 | CC(C)Oc1ccc2cc(S(=O)(=O)N[C@@H](C(=O)N3C4CCC3CC(N(C)C)C4)C(F)(F)c3ccc(Br)cc3)ccc2c1 (stereo partly drawn) [Compound 21-2, N-((2S)-1-(4-bromophenyl)-3-(3-(dimethylamino)-8-azabicyclo[3.2.1]octan-8-yl)-1,1-difluoro-3-oxopropan-2-yl)-6-isopropoxy naphthalene-2-sulfonamide] | 4.00 to 4.52
11 | CCCCOc1ccc(S(=O)(=O)N[C@H](C(=O)N2C3CCC2CC(N)C3)C(F)(F)c2ccc(Br)cc2)cc1 (stereo partly drawn) [Compound 22-1, N-((2R)-3-(3-amino-8-azabicyclo[3.2.1]octan-8-yl)-1-(4-bromophenyl)-1,1-difluoro-3-oxopropan-2-yl)-4-butoxybenzenesulfonamide] | 5.00 to 6.00
12 | CCCCOc1ccc(S(=O)(=O)N[C@@H](C(=O)N2C3CCC2CC(N)C3)C(F)(F)c2ccc(Br)cc2)cc1 (stereo partly drawn) [Compound 22-2, N-((2S)-3-(3-amino-8-azabicyclo[3.2.1]octan-8-yl)-1-(4-bromophenyl)-1,1-difluoro-3-oxopropan-2-yl)-4-butoxybenzenesulfonamide] | 4.00 to 4.52
13 | CCCCCCOc1ccc(S(=O)(=O)N[C@H](C(=O)N2C3CCC2CC(N)C3)C(F)(F)c2ccc(Br)cc2)cc1 (stereo partly drawn) [Compound 23-1, N-((2R)-3-(3-amino-8-azabicyclo[3.2.1]octan-8-yl)-1-(4-bromophenyl)-1,1-difluoro-3-oxopropan-2-yl)-4-(hexyloxy)benzenesulfonamide] | 5.00 to 6.00
14 | CCCCCCOc1ccc(S(=O)(=O)N[C@@H](C(=O)N2C3CCC2CC(N)C3)C(F)(F)c2ccc(Br)cc2)cc1 (stereo partly drawn) [Compound 23-2, N-((2S)-3-(3-amino-8-azabicyclo[3.2.1]octan-8-yl)-1-(4-bromophenyl)-1,1-difluoro-3-oxopropan-2-yl)-4-(hexyloxy)benzenesulfonamide] | 4.00 to 4.52
15 | NC1CC2CCC(C1)N2C(=O)[C@@H](NS(=O)(=O)c1ccc2cc(OCc3ccccc3)ccc2c1)C(F)(F)c1ccc(Br)cc1 (stereo partly drawn) [Compound 24-1, N-((2R)-3-(3-amino-8-azabicyclo[3.2.1]octan-8-yl)-1-(4-bromophenyl)-1,1-difluoro-3-oxopropan-2-yl)-6-(benzyloxy)naphthalene-2-sulfonamide] | 5.00 to 6.00
16 | NC1CC2CCC(C1)N2C(=O)[C@H](NS(=O)(=O)c1ccc2cc(OCc3ccccc3)ccc2c1)C(F)(F)c1ccc(Br)cc1 (stereo partly drawn) [Compound 24-2, N-((2S)-3-(3-amino-8-azabicyclo[3.2.1]octan-8-yl)-1-(4-bromophenyl)-1,1-difluoro-3-oxopropan-2-yl)-6-(benzyloxy)naphthalene-2-sulfonamide] | 4.00 to 4.52
